According to the supplement of paper PMC4862054:

Assays:
Assay in all cases: drug sensitivity score (DSS), CellTox Green (DSS (AUC-based score)); higher = stronger drug effect (viability inhibition or cytotoxicity); extreme values may be limits of the assay
Details in all cases: incubation time: 72 h
[1] = test system: CAL-51
Outline: (§1)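 Breast cancer cell lines, seeded as 20 µl suspension, were incubated 72 h with compound in 384-well plates at 5 concentrations in 10-fold steps over a 10,000-fold range set for each compound. Fluorescence from CellTox Green was read at 485/520 nm before CellTiter-Glo luminescence, which was read after 10 min at room temperature. Every plate was normalised to 0.1 % DMSO and a positive kill control, and the drug sensitivity score was taken from the area under the fitted dose-response curve.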

[2] = test system: CAL-85-1
Outline: as §1

[3] = test system: DU-4475
Outline: as §1

[4] = test system: HCC1143
Outline: as §1

[5] = test system: MCF-10A
Outline: as §1

[6] = test system: MDA-MB-231
Outline: as §1

[7] = test system: MDA-MB-468
Outline: as §1

[8] = test system: HCC1937
Outline: as §1

| SMILES | drug sensitivity score [1] | drug sensitivity score [2] | drug sensitivity score [3] | drug sensitivity score [4] | drug sensitivity score [5] | drug sensitivity score [6] | drug sensitivity score [7] | drug sensitivity score [8] |
| --- | --- | --- | --- | --- | --- | --- | --- | --- |
| O=P1(NCCCl)OCCCN1CCCl (centres undefined) [Ifosfamide] | 0 | 0 | 0 | 0 | 0 | 1.11 | 0 | – |
| Clc1ccc(Nc2nnc(Cc3ccncc3)c3ccccc23)cc1 [Vatalanib] | 0 | 0 | 0 | 0 | 2.74 | 0 | 0 | 0 |
| N#CCNC(=O)c1ccc(-c2ccnc(Nc3ccc(N4CCOCC4)cc3)n2)cc1 [Momelotinib] | 0 | 4.03 | 0 | 0 | 0 | 7.53 | 2.22 | 0 |
| O=C(O)c1ccc(-c2c[nH]c3ncc(-c4ccccc4)cc23)cc1C1CCCC1 | 0 | 0 | 0 | 0 | 0 | 0 | 0 | – |
| N[C@@H](CSC(c1ccccc1)(c1ccccc1)c1ccccc1)C(=O)O [S-trityl-L-cysteine] | 0 | 0 | 0 | 0 | 0 | 0 | 0 | 3.46 |
| NC(=O)Nc1cc(-c2cccc(F)c2)sc1C(=O)N[C@H]1CCCNC1 [AZD7762] | 3.37 | 12.9 | 0 | 0 | 0 | 0.946 | 6.89 | 0 |
| C=C(c1ccc(C(=O)O)cc1)c1cc2c(cc1C)C(C)(C)CCC2(C)C [Bexarotene] | 0 | 0 | 0 | 0 | 0 | 0 | 0 | 0 |
| C[C@]12CC[C@@H]3c4ccc(O)cc4C[C@@H](CCCCCCCCC[S+]([O-])CCCC(F)(F)C(F)(F)F)[C@H]3[C@@H]1CC[C@@H]2O (some centres undefined) [Fulvestrant] | 0 | 0 | 0 | 0 | 0 | 0 | – | 0 |
| CN[C@@H]1C[C@H]2O[C@@](C)([C@@H]1OC)n1c3ccccc3c3c4c(c5c6ccccc6n2c5c31)C(=O)N[C@H]4O [UCN-01] | 17 | 20.2 | 4.48 | 8.74 | 21.6 | 19 | 0 | 0 |
| CO[C@H]1/C=C\C=C(/C)C(=O)NC2=CC(=O)C(NCCN(C)C)=C(C[C@@H](C)C[C@H](OC)[C@H](O)[C@@H](C)/C=C(\C)[C@@H]1OC(N)=O)C2=O [Alvespimycin] | 6.02 | 6.41 | 4.5 | 9.99 | 13 | 7.29 | 1.6 | 1.6 |
| Cc1ccc(-n2nc(C(C)(C)C)cc2NC(=O)Nc2ccc(OCCN3CCOCC3)c3ccccc23)cc1 [Doramapimod] | 0 | 0 | 0 | 0 | 0 | 0 | 0 | 0 |
| COc1cc([C@@H]2c3cc4c(cc3[C@@H](O[C@@H]3O[C@@H]5CO[C@@H](C)O[C@H]5[C@H](O)[C@H]3O)[C@H]3COC(=O)[C@H]23)OCO4)cc(OC)c1O [Etoposide] | 9.25 | 1.64 | 0.895 | 0 | 0 | 0 | 7.2 | 0 |
| CCC1=C[C@@H]2CN(C1)Cc1c([nH]c3ccccc13)[C@@](C(=O)OC)(c1cc3c(cc1OC)N(C)[C@H]1[C@@](O)(C(=O)OC)[C@H](OC(C)=O)[C@]4(CC)C=CCN5CC[C@]31[C@@H]54)C2 [Vinorelbine] | 24.9 | 11.7 | 0 | 0 | 23.7 | 18.1 | 5.08 | 0 |
| COc1cc2nccc(Oc3ccc(NC(=O)C4(C(=O)Nc5ccc(F)cc5)CC4)cc3)c2cc1OC [Cabozantinib] | 0 | 0 | 0 | 0 | 0 | 0 | 0 | 0 |
| CN(N=O)C(=O)N[C@@H](C=O)[C@@H](O)[C@H](O)[C@H](O)CO [Streptozocin] | 0 | 0 | 0 | 0 | 0 | 0 | 3.14 | 0 |
| COc1cc2ncnc(Nc3ccc(F)c(Cl)c3)c2cc1NC(=O)/C=C/CN1CCCCC1 [Dacomitinib] | 0 | 4.64 | 0 | 0 | 0 | 0 | 0 | 0 |

| SMILES | drug sensitivity score [1] | drug sensitivity score [2] | drug sensitivity score [3] | drug sensitivity score [4] | drug sensitivity score [5] | drug sensitivity score [6] | drug sensitivity score [7] | drug sensitivity score [8] |
| --- | --- | --- | --- | --- | --- | --- | --- | --- |
| C[C@@H](Oc1cc(-c2cnn(C3CCNCC3)c2)cnc1N)c1c(Cl)ccc(F)c1Cl [Crizotinib] | 0 | 0 | 0 | 0 | 0 | 0 | 0 | 0 |
| N.N.[Cl][Pt][Cl] [Cisplatin] | 0 | 0 | 0 | 0 | 0 | 0 | – | 0 |
| CNCc1ccc(-c2[nH]c3cc(F)cc4c3c2CCNC4=O)cc1 [Rucaparib] | 0 | 0 | 0 | 0 | 0 | 0 | 10.6 | 0 |
| Cc1ccc(C(=O)N(CCCN)[C@@H](c2oc3cc(Cl)ccc3c(=O)c2Cc2ccccc2)C(C)C)cc1 | 0 | 0 | 0 | 0 | 0 | 0 | 0 | 0 |
| O=C1CCC(N2C(=O)c3ccccc3C2=O)C(=O)N1 (centres undefined) [Thalidomide] | 0 | 0 | 0 | 0 | 0 | 0 | 0 | 0 |
| CC1(C)NC(=O)N(c2ccc([N+](=O)[O-])c(C(F)(F)F)c2)C1=O [Nilutamide] | 0 | 0 | 0 | – | 0 | 0 | 0 | 0 |
| CCC1(c2ccc(N)cc2)CCC(=O)NC1=O (centres undefined) [Aminoglutethimide] | 0 | 0 | 0 | 0 | 0 | 0 | 0 | 0 |
| CN(C)/N=N/c1[nH]cnc1C(N)=O [Dacarbazine] | 0 | 0 | 0 | 0 | 0 | 0 | 0 | 3.14 |
| CC(C)Cn1cnc2c(N)nc3ccccc3c21 [Imiquimod] | 0 | 1.01 | 0 | 0 | 0 | 0 | 3.54 | 0 |
| Cn1c(Nc2ccc(C(F)(F)F)cc2)nc2cc(Oc3ccnc(-c4ncc(C(F)(F)F)[nH]4)c3)ccc21 [RAF265] | 0 | 4.33 | 0 | 0 | – | 0 | 0 | 0 |
| Cn1c(CCCC(=O)O)nc2cc(N(CCCl)CCCl)ccc21 [Bendamustine] | 0 | 0 | 0 | 0 | 0 | 4.63 | 4.02 | 0 |
| CS(=O)(=O)c1ccc(C2=C(c3ccccc3)C(=O)OC2)cc1 [Rofecoxib] | 0 | 0 | 0 | 0 | 0 | 0 | 3.77 | 1.95 |
| CCCCCCCCCCCCCCCCCCOP(=O)([O-])OC1CC[N+](C)(C)CC1 [Perifosine] | 0 | 0 | 0 | 0 | 0 | 0 | 0 | 0 |
| O=C(CCCCCCC(=O)Nc1ccc([C@H]2O[C@@H](CSc3nc(-c4ccccc4)c(-c4ccccc4)o3)C[C@@H](c3ccc(CO)cc3)O2)cc1)NO [Tubacin] | 3.54 | 5.67 | 0 | 2.07 | 0 | 7.97 | 0 | 10.6 |
| C#Cc1cccc(Nc2ncnc3cc(OCCOC)c(OCCOC)cc23)c1 [Erlotinib] | 2.1 | 6.41 | 0 | 0 | 0 | – | 0 | 0 |
| Oc1nc(-c2ccc(C(F)(F)F)cc2)nc2c1CSCC2 [XAV-939] | 0 | 0 | 0 | 0 | 0 | 0 | 0 | 0 |
